Experimental data: US5002948A, “3-[4-[4-substituted-1-piperazinyl]-1-butyl]-1H-2,3-dihydroindoles” (H. Lundbeck A/S, priority 1988, dated 1991)

Columns and labels:
[1] = target: T1, 5-HT1A (Rattus norvegicus, UniProt P19327); assay: Generalization to discriminative stimulus properties induced by 8-OHDPAT in rats (agonism); assay type: in vivo, Male Wistar rats; design: from tissue; host or cells: whole living animal, male Wistar rats, s.c. dosing; conditions: usually 30 or 45 min before test, substituted for 8-OHDPAT, per cent drug response; for ED50: rat, sc, read-out: ED50, 8-OH DPAT cue agonism
T1 sequence (P19327 1-422): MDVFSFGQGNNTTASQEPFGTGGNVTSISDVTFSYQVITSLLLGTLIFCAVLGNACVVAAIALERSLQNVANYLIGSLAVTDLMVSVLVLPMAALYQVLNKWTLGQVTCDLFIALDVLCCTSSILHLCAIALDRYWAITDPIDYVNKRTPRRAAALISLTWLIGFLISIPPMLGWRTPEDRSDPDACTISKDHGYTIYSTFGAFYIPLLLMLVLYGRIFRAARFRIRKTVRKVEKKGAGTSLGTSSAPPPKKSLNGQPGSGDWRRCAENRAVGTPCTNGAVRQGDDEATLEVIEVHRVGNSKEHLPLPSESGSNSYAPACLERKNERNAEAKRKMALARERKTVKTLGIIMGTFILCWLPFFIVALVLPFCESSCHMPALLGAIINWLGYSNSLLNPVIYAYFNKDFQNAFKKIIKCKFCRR
Description: GENERALIZATION TO DISCRIMINATIVE STIMULUS PROPERTIES INDUCED BY 8-OHDPAT IN RATS.
This test model is used to determine the agonist effects of a test compound on 5-HT1A receptors in vivo. A related method is described by Tricklebank, M. D., J. Neill, E. J. Kidd and J. R. Fozard, Eur. J. Pharmacol. 133, 37-56, 1987; Arnt, J., Pharmacology & Toxicology 64, 165-172, 1989.
The procedure is the same as for the antagonism test mentioned above, except that the test compound is substituted for 8-OHDPAT and injected s.c. usually 30 minutes or 45 minutes respectively before beginning of the test.
The per cent drug response obtained for each dose of test compound is used to calculate ED50 values by log-probit analysis.

[2] = target: T1, 5-HT1A; assay: Antagonism of the discriminative stimulus properties induced by 8-OHDPAT in rats; assay type: in vivo, Male Wistar rats; design: from tissue; host or cells: whole living animal, male Wistar rats, s.c. dosing; conditions: s.c. before 8-OHDPAT, rats trained at 0.4 mg/kg i.p., inhibition of drug responding; for ED50: rat, sc, read-out: ED50, 8-OH DPAT cue antagonism; for ED50, 8-OH DPAT cue antagonism: 0.4 mg/kg
Protocol: ANTAGONISM OF THE DISCRIMINATIVE STIMULUS PROPERTIES INDUCED BY 8-OHDPAT IN RATS.
This test model is used to determine the antagonist effects of a test compound on 5-HT1A receptors in vivo. A related method is described by Tricklebank, M. D., J. Neill, E. J. Kidd and J. R. Fozard, Eur. J. Pharmacol. 133, 47-56, 1987; Arnt. J., Pharmacology & Toxicology 64, 165-172, 1989.
Male Wistar rats are trained to discriminate between 8-OHDPAT (0.4 mg/kg, i.p., 15 min. pretreatment) and physiological saline in operant chambers equipped with two response levers. Between the levers a dipper is placed, where water rewards (0.1 ml) are presented. The rats are water deprived for at least 24 h and work in a fixed ratio (FR) schedule (final FR=32).
Following 8-OHDPAT administration responding is reinforced only on a designated (drug) lever, whereas responding on the opposite lever has no consequences. Following saline administration responding is reinforced on the lever opposite to the drug lever. Drug and saline trials alternate randomly between training days, although the same treatment is given maximally at 3 consecutive days. The level of discrimination occuracy is expressed as the per cent drug responses and is calculated as the number of correct responses×100 divided by the sum of the correct and incorrect responses before the first reward. When stable occuracy (mean correct responding=90 per cent; individual rats at least 75 per cent correct responding) is obtained test sessions are included between training days. Test compound is injected s.c. at appropriate time before 8-OHDPAT and the test begins 15 min after 8-OHDPAT injection. The test trial is terminated when a total of 32 responses are made on either lever or when 20 min have elapsed. No reward is given and the rats have free access to water for 20-30 min after the test. The effects are expressed as per cent inhibition of drug responding. Only results from rats making at least 10 responses on one lever are included in data analysis. Furthermore, only test sessions in which at least half of the rats respond are included.
The per cent inhibition of drug response obtained for each dose of test compound is used to calculate ED50 values by log-probit analysis.

ED50 [1] [µmol/kg] | ED50 [2] [µmol/kg] | ED50, 8-OH DPAT cue antagonism [2] [µmol/kg] | ED50, 8-OH DPAT cue agonism ([1]; s.c.) [µmol/kg] | SMILES
2.7 | > 9 |  |  | c1ccc2c(c1)NCC2CCCCN1CCN(c2cccc3c2OCC3)CC1 (stereo not drawn) [Compound 3i, 3-[4-[4-(2,3-dihydro-7-benzofuranyl)-1-piperazinyl]-1-butyl]-1H-2,3-dihydroindole]
> 4.4 | 8.8 |  |  | c1ccc2c(c1)NCC2CCCCN1CCN(c2cccc3c2OCCO3)CC1 (stereo not drawn) [Compound 3j, 3-[4-[4-(1,4-benzodioxan-5-yl)-1-piperazinyl]-1-butyl]-1H-2,3-dihydroindole]
> 6.8 |  | 1.0 |  | COc1ccccc1N1CCN(CCCCC2CNc3ccccc32)CC1 (single isomer, unassigned; (+)) [Compound 7a, (+)-3-[4-[4-(2-methoxyphenyl)-1-piperazinyl]-1-butyl]-1H-2,3-dihydroindole]
> 9.2 | 7.2 |  |  | COc1ccccc1N1CCN(CCCCC2CNc3ccccc32)CC1 (stereo not drawn) [Compound 3a, 3-[4-[4-(2-methoxyphenyl)-1-piperazinyl]-1-butyl]-1H-2,3-dihydroindole]
 |  | > 3.4 | > 3.4 | COc1ccccc1N1CCN(CCCCC2CNc3ccccc32)CC1 (single isomer, unassigned; (-)) [Compound 7b, (-)-3-[4-[4-(2-methoxyphenyl)-1-piperazinyl]-1-butyl]-1H-2,3-dihydroindole]
> 26 | 4.8 |  |  | CCOc1ccccc1N1CCN(CCCCC2CNc3ccccc32)CC1 (stereo not drawn) [Compound 3c, 3-[4-[4-(2-ethoxyphenyl)-1-piperazinyl]-1-butyl]-1H-2,3-dihydroindole]
